Measurements taken from paper PMC7587528.
Entries after “also recorded” stand apart in the source; their conditions may differ. Where two headings read alike, the source gives them in different places.

Key:
apo-myoglobin = details: in solution, ref [23], cited from earlier work
Excerpt: In solution, the bi-molecular association of the heme group to apo-myoglobin is thought to follow a bimodal process. Association of heme to (partially unfolded) apo-myoglobin is fast (kA ~10^8 M^−^1·s^−^1), followed by a slower structural re-arrangement (k ~500 s^−^1) to generate natively-folded holo-myoglobin (at pH 7) in which the iron atom of the heme group is then primarily coordinated by His93 [23]. Accordingly, in-solution affinity of at least partially unfolded apo-myoglobin to the heme prosthetic group has been characterized as rather strong and the complex consisting of both compone ...

[1] = tested on: antiTroponin I antibody [MF4]; experiment: ITEM-TWO nanoESI-MS collision induced dissociation: Troponin I peptide-antiTroponin I antibody complex (gas phase); format: binding
Excerpt: At last, we performed ITEM-TWO experiments with an epitope peptide that was derived from human cardiac Troponin I (Tn I) against which was directed a monoclonal antiTroponin I antibody (antiTn I). Generation of the immune complex in solution and subsequent electrospraying of the entire mixture started data acquisition with the respective instrument settings as mentioned (for details see Methods section). […] Again, upon raising the collision cell voltage difference there appeared isotopically resolved ions in the low m/z range of the mass spectrum for the Troponin I epitope peptide (see insert in Figure 7) which were recorded with high mass accuracy (7 ppm).
Again, plotting norm (educts) vs. ΔCV produced a sigmoidal shaped course which represented the dependence of educt intensity on ΔCV following Boltzmann characteristics (Supplemental Figure S7). The y-axis values on the tangent line, i.e., norm (educts) , enabled to calculate ln kmg# values. […] This Arrhenius plot again provided lnA (pre-exponential factor) as the intercept with the y-axis and − ΔGmg#/R as the slope of the line (Supplemental Figure S8). In the same manner as described above, the value for km0g# was calculated. Similarly, by applying the Eyring-Polanyi equation KD m0g# was determined.
The human cardiac Troponin I epitope peptide (ENREVGDWRKNIDAL; peptides&elephants, Hennigsdorf, Germany) was obtained as lyophilized powder. The peptide was dissolved in 200 mM ammonium acetate buffer, pH 7, to obtain a peptide concentration of 1.31 µg/µL. The antiTroponin I antibody [MF4] (product code ab38210; Abcam, Cambridge, UK) was obtained dissolved in PBS buffer, pH 7.4. […] Then 200 mM ammonium acetate buffer, pH 7, were added to reach a volume of 500 µL. The solution was centrifuged at 13,000 rpm for 10 min. The filtrate was discarded. To the retentate on the filter (ca. 30 µL) 470 µL of 200 mM ammonium acetate buffer, pH 7, were added to reach a total volume of 500 µL. The solution was centrifuged again. This centrifugation/re-filling procedure was repeated eight times. After the last spinning, the filter unit was inverted into a new vial and was centrifuged at 4500 rpm for 5 min to collect the retentate (52 µL). Protein concentration was determined to be 0.33 µg/µL using the Qubit^TM 2.0 Fluorometer (Carlsbad, CA, USA) assay. […] The immune complex-containing mixture was incubated at room temperature for at least 1 h. For each measurement, 3 µL of antibody-peptide complex-containing solution were loaded into nanoESI capillaries using a microloader pipette tip (Eppendorf, Hamburg, Germany).
The m/z axis was calibrated using 1 mg/mL sodium iodide dissolved in an isopropanol/water solution (50:50, v/v). […]

holo-myoglobin = details: gas phase, ref [19], cited from earlier work
Excerpt: In that investigation, heme dissociation kinetics was studied (i) by spraying solutions with pH 5 and (ii) by looking at selected charge state pairs (e.g., 8+ protonated holo-myoglobin and 7+ charged apo-myoglobin). Activation energies ranged from 73 kJ/mol to 106 ...

[2] = tested on: holo-myoglobin (apo-myoglobin—heme complex); experiment: ITEM-TWO nanoESI-MS collision induced dissociation: heme loss from holo-myoglobin (gas phase); format: binding
Method: The mass spectral data obtained from electrospraying myoglobin (the holo-myoglobin complex consists of apo-myoglobin plus heme) were collected by following the ITEM-TWO protocol (see Methods section for in-solution handling and data acquisition steps). The ESI mass spectrum of myoglobin (Figure 4) provides an ion series of multiply charged ions from which a mean charge state of 8.1+ and an average mass of 17,566.95 ± 0.46 Da is calculated for holo-myoglobin. After having electrosprayed the myoglobin solution, and upon having switched on the collision gas and having increased the collision cell voltage difference ( ΔCV ) in a step-wise manner (5–20 V/step), dissociation of holo-myoglobin complexes caused appearance of complex-released heme ions (ligands) in the low mass ranges of the mass spectra (Supplemental Table S1). […] The m/z value of the ion that appeared in the low mass range ([heme]+) was 616.21 and corresponded precisely to the calculated values for singly protonated [heme]+ (m/z 616.18), resulting in a mass accuracy of 48 ppm.
Mean charge states of holo-myoglobin ions (m+), apo-myoglobin (n+) and heme (p+) as well as apex heights (holo-myoglobin ions (h, educts), heme ions (i, product), and apo-myoglobin ions (j, product) were extracted (Supplemental Table S2) from the triplicate measurements, averaged and normalized. For each ΔCV setting one spectrum was generated (Figure 4) and analyzed semi-quantitatively by determining Gaussian fits for all molecular/supra-molecular ion species.
All the y-values from the tangent line of the steep decline that fall within the 2dx interval around ΔCV50 are used for the calculation of ln kmg# values which are then used in the Arrhenius plot (Supplemental Figure S2). […] Then, ΔGm0g# is calculated using the van´t Hoff equation (Table 1).
A stock solution was first prepared by dissolving 5.22 mg of myoglobin (lot # 60K7007, Sigma-Aldrich, Steinheim, Germany) in 1 mL of 200 mM ammonium acetate. […] The concentration of the resulting solution was determined to be 0.5 µg/µL using a QubitTM 2.0 Fluorometer (Carlsbad, California, USA). […]

[3] = "neutral and resting" complex, gas phase, Arrhenius extrapolation to 298 K (ΔCV = 0)

Molecule: C=CC1=C(C)c2cc3[n-]c(cc4[n-]c(cc5nc(cc1n2)C(C)=C5C=C)c(C)c4CCC(=O)O)c(CCC(=O)O)c3C.[Fe+2] [heme]
- k of slower structural re-arrangement to natively-folded holo-myoglobin (apo-myoglobin; pH 7): ~ 500 s^−^1
- kA association of heme to (partially unfolded) apo-myoglobin (apo-myoglobin): ~ 10^8 M^−^1·s^−^1

Molecule: DYKDDDDK [FLAG]
- km0g# apparent rate constant of dissociation (antiFLAG M2 antibody; [3]): 7.9 × 10 ^10 1/s
- ∆CV50 (antiFLAG M2 antibody; collision cell voltage difference at center of Boltzmann fit of normalized educt intensity, peptide to antibody 2.2:1, 200 mM ammonium acetate pH 7, three determinations): 89.0 V
- dx (antiFLAG M2 antibody; half of x-axis interval (2dx) of steepest educt decline in Boltzmann fit, three determinations): 19.8 V
- binding stoichiometry, peptides bound per antibody (antiFLAG M2 antibody; high mass range ion triplets, charge states 21+ to 27+, mixture of seven peptides, listed as FLAG peptide): one bound FLAG peptide; also recorded: two bound FLAG peptides
- peptide released from antiFLAG antibody complex (epitope identification) (antiFLAG M2 antibody; mixture of seven peptides with antiFLAG antibody, 200 mM ammonium acetate pH 7, raised collision cell voltage): only released the FLAG peptide

Molecule: ENREVGDWRKNIDAL [troponin I, peptides&elephants)]
- km0g# apparent rate constant of dissociation [1, 3]: 2.2 × 10 ^12 1/s
- ∆CV50 ([1]; collision cell voltage difference at center of Boltzmann fit of normalized educt intensity, Synapt G2S, peptide to antibody 2.2:1, 200 mM ammonium acetate pH 7, two determinations): 26.4 V
- dx ([1]; half of x-axis interval (2dx) of steepest educt decline in Boltzmann fit, Synapt G2S, two determinations): 15.9 V
- binding stoichiometry, peptides bound per antibody ([1]; high mass range ion triplets, charge states 23+ to 28+, listed as Troponin I epitope peptide): one bound Troponin I epitope peptide; also recorded: two bound Troponin I epitope peptides

B1: myoglobin: holo-myoglobin complex consists of apo-myoglobin plus heme; lot # 60K7007, Sigma-Aldrich (protein, UniProt P68082 2-154, looked up)
Myoglobin: GLSDGEWQQVLNVWGKVEADIAGHGQEVLIRLFTGHPETLEKFDKFKHLKTEAEMKASEDLKKHGTVVLTALGGILKKKGHHEAELKPLAQSHATKHKIPIKYLEFISDAIIHVLHSKHPGDFGADAQGAMTKALELFRNDIAAKYKELGFQG
modifications: heme
notes: holo-myoglobin complex consists of apo-myoglobin plus heme; lot # 60K7007, Sigma-Aldrich
- activation energy for heme dissociation (holo-myoglobin; 9+ protonated holo-myoglobin): 22 kcal/mol
- activation energy for heme dissociation (holo-myoglobin; 10+ protonated holo-myoglobin): 20.3 kcal/mol
- km0g# apparent rate constant of dissociation [2, 3]: 5.1 × 10 ^9 1/s
- ∆CV50 ([2]; collision cell voltage difference at center of Boltzmann fit of normalized educt intensity, Q-TOF 2, 200 mM ammonium acetate pH 7, triplicate): 44.0 V
- dx ([2]; half of x-axis interval (2dx) of steepest educt decline in Boltzmann fit, Q-TOF 2, triplicate): 8.5 V
